From patent US5886014A, “Benzimidazole derivatives, their preparation and their therapeutic use” (Sankyo Company, Limited, priority 1995, dated 1999) come the findings set out here.

pIC50: −log10 of the molar value.

Experiment [1] concerns blood glucose level. The experiment is described as follows: Hypoglycemic activity in hyperglycemic KK mice (blood glucose level). In kind it is in vivo, male mice of the KK strain. The note with it: 1 mg/kg oral, 18 hours, vs solvent-only group. The procedure: The test animals used were hyperglycemic male mice of the KK strain, each having a body weight of at least 40 g. The compounds under test were mixed with a 1:1 by volume mixture of polyethylene glycol 400 and water. Each animal was orally administered a test compound in the amount shown in the following Table 6 and then allowed to feed freely for 18 hours. At the end of this time, blood was collected from the tail veins without anesthesia. The blood glucose level (BGL) was determined by means of a glucose analyzer (GL-101, manufactured by Mitsubishi Kasei Co. or a Glucoroder-F manufactured by Shino Test Co.). The hypoglycemic effect was calculated by the following equation: Hypoglycemic effect (%)=[(BGLs -BGLt)/BGLs ]×100 where: BGLs is the blood glucose level in the group administered a solvent only, but no active compound; and BGLt is the blood glucose level in the group administered a test compound. The results are shown in the following Table 6, in which each compound of the present invention is identified by the number of one of the following Examples in which its preparation is illustrated.

Experiment [2] concerns the target T1, Bovine lens aldose reductase (Bos taurus, UniProt P16116).
T1 construct: Bovine lens aldose reductase was separated and partially purified; from tissue; host or cells: bovine lens
The experiment is described as follows: Inhibition of Aldose reductase. The format is biochemical. The note with it: for inhibition at 5 µg/mL: read-out: Inhibition (%) at 5 μg/ml. As for the experimental part:
Bovine lens aldose reductase was separated and partially purified by the method of S. Hyman and J. H. Kinoshita [J. Biol. Chem. 240, 877 (1965)] and K. Inagaki, I. Miwa and J. Okuda [Arch. Biochem. Biophys., 216, 337 (1982)], and its activity was determined photometrically by the method of Varma et al. [Biochem. Pharmac., 25, 2505 (1976)]. Inhibition of enzyme activity was measured for the compounds of the present invention at a concentration of 5 μg/ml, and the measured values were used to calculate the IC50 values.

As for `Cn1c(COc2ccc(CC3SC(=O)NC3=O)cc2)nc2ccccc21` (centres unmarked) [Example 1, 5-[4-(1-Methylbenzimidazol-2-ylmethoxy)benzyl]thiazolidine-2,4-dione], in experiment [1], the “Hypoglycemic effect (%)” value was 36.2%. In addition, in experiment [2], the pIC50 was 5.68 and the inhibition at 5 µg/mL amounted to 80.3%.
Consider `COc1ccc2nc(COc3ccc(CC4SC(=O)NC4=O)cc3)n(C)c2c1` (centres unmarked) [Example 2, 5-[4-(6-Methoxy-1-methylbenzimidazol-2-ylmethoxy)benzyl]thiazolidine-2,4-dione], for which, in experiment [1], the “Hypoglycemic effect (%)” value came to 27.2%.
With `Cc1c(O)c(C)c2nc(COc3ccc(CC4SC(=O)NC4=O)cc3)n(C)c2c1C` (centres unmarked) [Example 3, 5-[4-(5-Hydroxy-1,4,6,7-tetramethylbenzimidazol-2-ylmethoxy)benzyl]thiazolidine-2,4-dione], the “Hypoglycemic effect (%)” value in experiment [1] was 11.2%. Besides, in experiment [2], the pIC50 is 5.48 and the inhibition at 5 µg/mL stood at 79.6%.
In the case of `Cc1c(O)c(C)c2nc(COc3ccc(CC4SC(=O)NC4=O)cc3)n(C)c2c1C.Cl` (centres unmarked) [Example 4, 5-[4-(5-Hydroxy-1,4,6,7-tetramethylbenzimidazol-2-ylmethoxy)benzyl]thiazolidine-2,4-dione hydrochloride], the “Hypoglycemic effect (%)” value in experiment [1] was 19.3%.

One may read the pIC50 as the negative decadic logarithm of the IC50, by convention in mol/L. Low values mean a high IC50, high ones a low IC50.
